Source: patent US7465799B2, “Methods and compositions for selectin inhibition” (Wyeth, priority 2003, dated 2008)

Target: T1, P-selectin binding to P-selectin glycoprotein ligand-1 (PSGL-1) (Homo sapiens, UniProt P16109)
T1 construct: truncated form of human P-selectin comprised of the lectin and EGF domains (P-LE)
T1 sequence (P16109 42-198): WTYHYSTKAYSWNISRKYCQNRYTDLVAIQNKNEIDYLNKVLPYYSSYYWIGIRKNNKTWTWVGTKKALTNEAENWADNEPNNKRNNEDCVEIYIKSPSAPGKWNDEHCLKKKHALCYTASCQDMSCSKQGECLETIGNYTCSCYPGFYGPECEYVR
Assay: Biacore assay: inhibition of P-selectin (P-LE) binding to PSGL-1 (SGP-3)
Settings: at 1 mM
Description: Compounds of the invention can be assayed for selectin inhibitory activity using any of the procedures known in the art. One convenient procedure is the determination of IC50 values for inhibition of P-selectin binding to P-selectin glycoprotein ligand-1 (PSGL-1) using Biacore.
The Biacore 3000 is an instrument that uses surface plasmon resonance to detect binding of a solution phase analyte to an immobilized ligand on a sensor chip surface. The analyte sample is injected under flow using a microfluidic system. Binding of analyte to ligand causes a change in the angle of refracted light at the surface of the sensor chip, measured by the Biacore instrument in resonance units (RUs).
SGP-3 is a purified sulfoglycopeptide form of human PSGL-1 that contains the P-selectin binding determinants (See Somers et al., 2000, Cell 103, 467-479). SGP-3 was biotinylated via amine chemistry at a unique C-terminal lysine residue and immobilized on streptavidin-coated SA sensor chip. […]
The Biacore assay measures the signal in RU produced by binding of P-LE to SGP-3 in the presence and absence of inhibitors. Percent inhibition of binding is calculated by dividing the inhibited signal by the uninhibited signal subtracting this value from one then multiplying by one hundred. […] The data from this titration are plotted, RU values vs. concentration, and the IC50 is determined by extrapolation from the plot. […]

**Q.** Which “Percent inhibition of binding (positive control)” value does the source give for `CC1(C)[C@@H](O[C@H]2O[C@H](C(=O)O)[C@@H](O)[C@H](O)[C@H]2O[C@@H]2O[C@H](C(=O)O)[C@@H](O)[C@H](O)[C@H]2O)CC[C@]2(C)[C@H]3C(=O)C=C4[C@@H]5C[C@@](C)(C(=O)O)CC[C@]5(C)CC[C@@]4(C)[C@]3(C)CC[C@@H]12` [Glycerrhizzin] here?
**A.** 50%
